Results published in the NIST ThermoML archive (doi:10.1016/j.jct.2016.05.015).
Numbers after ± are expanded uncertainties.

Key:
[1] = xn = mol fraction of the nth substance listed; conditions: 100 kPa, Liquid, x2 = 0; for viscosity: Capillary tube (Ostwald / Ubbelohde) method; for speed of sound: Frequency=2 MHz, Linear variable-path acoustic interferometer; for mass density: Vibrating tube method
[2] = 100 kPa, Liquid; for viscosity: Capillary tube (Ostwald / Ubbelohde) method; for speed of sound: Frequency=2 MHz, Linear variable-path acoustic interferometer; for mass density: Vibrating tube method

`Brc1ccccc1` [bromobenzene] + Nc1cccc(Cl)c1 showed a viscosity ([1]; 303.15 K) of 0.982 ± 0.1 mPa·s, a speed of sound ([1]; 303.15 K) of 1136 ± 7 m/s and a mass density ([1]; 303.15 K) of 1481.52 ± 20 kg/m3. The viscosity ([1]; 308.15 K) was 0.953 ± 0.1 mPa·s, the speed of sound ([1]; 308.15 K) was 1122 ± 6.9 m/s and the mass density ([1]; 308.15 K) was 1475.36 ± 20 kg/m3. For the same compound, the viscosity ([1]; 313.15 K) was 0.892 ± 0.1 mPa·s, the speed of sound ([1]; 313.15 K) was 1109 ± 6.8 m/s and the mass density ([1]; 313.15 K) was 1468.02 ± 20 kg/m3. For the same compound, the viscosity ([1]; 318.15 K) was 0.848 ± 0.1 mPa·s, the speed of sound ([1]; 318.15 K) was 1099 ± 6.7 m/s and the mass density ([1]; 318.15 K) was 1461.36 ± 20 kg/m3.
For `O=[N+]([O-])c1ccccc1` [nitrobenzene], the viscosity ([2]; 303.15 K) was 1.627 ± 0.1 mPa·s, the speed of sound ([2]; 303.15 K) was 1438 ± 8.8 m/s and the mass density ([2]; 303.15 K) was 1193.45 ± 20 kg/m3. For the same compound, the viscosity ([2]; 308.15 K) was 1.498 ± 0.1 mPa·s, the speed of sound ([2]; 308.15 K) was 1420 ± 8.7 m/s and the mass density ([2]; 308.15 K) was 1188.29 ± 20 kg/m3. The viscosity ([2]; 313.15 K) was 1.388 ± 0.1 mPa·s, the mass density ([2]; 313.15 K) was 1183.69 ± 20 kg/m3 and the viscosity ([2]; 318.15 K) was 1.275 ± 0.1 mPa·s. It also gave a speed of sound ([2]; 318.15 K) of 1385 ± 8.5 m/s and a mass density ([2]; 318.15 K) of 1177.32 ± 20 kg/m3.
In the case of `O=[N+]([O-])c1ccccc1` [nitrobenzene] + Nc1cccc(Cl)c1, the viscosity ([1]; 303.15 K) is reported as 1.627 ± 0.1 mPa·s, the speed of sound ([1]; 303.15 K) is reported as 1438 ± 8.8 m/s and the mass density ([1]; 303.15 K) is reported as 1193.45 ± 20 kg/m3. The viscosity ([1]; 308.15 K) was 1.498 ± 0.1 mPa·s, the speed of sound ([1]; 308.15 K) was 1420 ± 8.7 m/s and the mass density ([1]; 308.15 K) was 1188.29 ± 20 kg/m3. It also gave a viscosity ([1]; 313.15 K) of 1.388 ± 0.1 mPa·s, a speed of sound ([1]; 313.15 K) of 1402 ± 8.6 m/s and a mass density ([1]; 313.15 K) of 1183.69 ± 20 kg/m3. The viscosity ([1]; 318.15 K) was 1.275 ± 0.1 mPa·s, the speed of sound ([1]; 318.15 K) was 1385 ± 8.5 m/s and the mass density ([1]; 318.15 K) was 1177.32 ± 20 kg/m3.
Compound `Clc1ccccc1` [chlorobenzene] has a viscosity ([2]; 303.15 K) of 0.712 ± 0.1 mPa·s, a speed of sound ([2]; 303.15 K) of 1248.2 ± 7.7 m/s and a mass density ([2]; 303.15 K) of 1095.54 ± 20 kg/m3. The viscosity ([2]; 308.15 K) was 0.675 ± 0.1 mPa·s, the speed of sound ([2]; 308.15 K) was 1226 ± 7.5 m/s and the mass density ([2]; 308.15 K) was 1089.72 ± 20 kg/m3. It also gave a viscosity ([2]; 313.15 K) of 0.634 ± 0.1 mPa·s, a speed of sound ([2]; 313.15 K) of 1206 ± 7.4 m/s and a mass density ([2]; 313.15 K) of 1084.71 ± 20 kg/m3. For the same compound, the viscosity ([2]; 318.15 K) was 0.602 ± 0.1 mPa·s, the speed of sound ([2]; 318.15 K) was 1181 ± 7.3 m/s and the mass density ([2]; 318.15 K) was 1079.45 ± 20 kg/m3.
Work on `Clc1ccccc1` [chlorobenzene] + Nc1cccc(Cl)c1 yielded a viscosity ([1]; 303.15 K) of 0.712 ± 0.1 mPa·s, a speed of sound ([1]; 303.15 K) of 1248.2 ± 7.7 m/s and a mass density ([1]; 303.15 K) of 1095.54 ± 20 kg/m3. It also gave a viscosity ([1]; 308.15 K) of 0.675 ± 0.1 mPa·s, a speed of sound ([1]; 308.15 K) of 1226 ± 7.5 m/s and a mass density ([1]; 308.15 K) of 1089.72 ± 20 kg/m3. It also gave a viscosity ([1]; 313.15 K) of 0.634 ± 0.1 mPa·s, a speed of sound ([1]; 313.15 K) of 1206 ± 7.4 m/s and a mass density ([1]; 313.15 K) of 1084.71 ± 20 kg/m3. It also gave a viscosity ([1]; 318.15 K) of 0.602 ± 0.1 mPa·s, a speed of sound ([1]; 318.15 K) of 1181 ± 7.3 m/s and a mass density ([1]; 318.15 K) of 1079.45 ± 20 kg/m3.
Compound `Brc1ccccc1` [bromobenzene] has a viscosity ([2]; 303.15 K) of 0.982 ± 0.1 mPa·s, a speed of sound ([2]; 303.15 K) of 1136 ± 7 m/s and a mass density ([2]; 303.15 K) of 1481.52 ± 20 kg/m3. The viscosity ([2]; 308.15 K) was 0.953 ± 0.1 mPa·s, the speed of sound ([2]; 308.15 K) was 1122 ± 6.9 m/s and the mass density ([2]; 308.15 K) was 1475.36 ± 20 kg/m3. It also gave a viscosity ([2]; 313.15 K) of 0.892 ± 0.1 mPa·s, a speed of sound ([2]; 313.15 K) of 1109 ± 6.8 m/s and a mass density ([2]; 313.15 K) of 1468.02 ± 20 kg/m3. For the same compound, the viscosity ([2]; 318.15 K) was 0.848 ± 0.1 mPa·s, the speed of sound ([2]; 318.15 K) was 1099 ± 6.7 m/s and the mass density ([2]; 318.15 K) was 1461.36 ± 20 kg/m3.
